Assay results published in US20090197880A1 (Genelabs Technologies, Inc., priority 2007, published 2009).

Assay: HCV replicon assay (luciferase) in ET (Huh-lucubineo-ET) cell line
Type: cell-based
Details: Hepatitis C virus; tested at 10 μM; inhibition of replication relative to no compound control; ET replicon cells, luciferase 48-72 hours; read-out: % inhition at 10 μM

Row | Compound | inhibition at 10 µM
1 | COc1ccc(-c2noc(Cn3cc4nc(-c5cccc(F)c5F)nc-4cn3)n2)cc1 [Compound 228, 2-(2,3-Difluoro-phenyl)-5-[3-(4-methoxy-phenyl)-[1,2,4]oxadiazol-5-ylmethyl]-5H-imidazo[4,5-d]pyridazine] | 40.8%
2 | Fc1cccc(-c2nc3cnn(Cc4noc(-c5ccc(C(F)(F)F)cc5)n4)cc-3n2)c1F [Compound 230, 2-(2,3-Difluoro-phenyl)-5-[5-(4-trifluoromethyl-phenyl)-[1,2,4]oxadiazol-3-ylmethyl]-5H-imidazo[4,5-d]pyridazine] | 35.8%
3 | FC(F)(F)c1ccc(-c2cc(Cn3cc4nc(-c5ccccn5)nc-4cn3)on2)c(C(F)(F)F)c1 [Compound 231, 5-[3-(2,4-Bis-trifluoromethyl-phenyl)-isoxazol-5-ylmethyl]-2-pyridin-2-yl-5H-imidazo[4,5-d]pyridazine] | 42%
4 | Nc1nn(Cc2cc(-c3ccc(C(F)(F)F)cc3C(F)(F)F)no2)cc2nc(-c3cccc(F)c3F)nc1-2 [Compound 233, 6-[3-(2,4-Bis-trifluoromethyl-phenyl)-isoxazol-5-ylmethyl]-2-(2,3-difluoro-phenyl)-6H-imidazo[4,5-d]pyridazin-4-ylamine] | 96.8%
5 | CCCOc1ccc(-c2cc(Cn3cc4nc(-c5cccc(F)c5F)nc-4c(N)n3)on2)cc1 [Compound 235, 2-(2,3-Difluoro-phenyl)-6-[3-(4-propoxy-phenyl)-isoxazol-5-ylmethyl]-6H-imidazo[4,5-d]pyridazin-4-ylamine] | 56%
6 | Nc1nn(Cc2cc(-c3ccc(C(F)(F)F)cc3F)no2)cc2nc(-c3cccc(F)c3F)nc1-2 [Compound 236, 2-(2,3-Difluoro-phenyl)-6-[3-(2-fluoro-4-trifluoromethyl-phenyl)-isoxazol-5-ylmethyl]-6H-imidazo[4,5-d]pyridazin-4-ylamine] | 76.8%
7 | Nc1nn(Cc2cc(-c3ccc(C(F)(F)F)cc3C(F)(F)F)no2)c(N)c2nc(-c3cccc(F)c3F)nc1-2 [Compound 237, 5-[3-(2,4-Bis-trifluoromethyl-phenyl)-isoxazol-5-ylmethyl]-2-(2,3-difluoro-phenyl)-5H-imidazo[4,5-d]pyridazine-4,7-diamine] | 1.73%
8 | Fc1ccccc1-c1nc2cnn(Cc3cc(-c4ccc(Cl)cc4)on3)cc-2n1 [Compound 239, 5-[5-(4-Chloro-phenyl)-isoxazol-3-ylmethyl]-2-(2-fluoro-phenyl)-5H-imidazo[4,5-d]pyridazine] | 95.3%
9 | COc1ccc(-c2nc(Cn3cc4nc(-c5ccccc5F)nc-4cn3)no2)cc1 [Compound 240, 2-(2-Fluoro-phenyl)-5-[5-(4-methoxy-phenyl)-[1,2,4]oxadiazol-3-ylmethyl]-5H-imidazo[4,5-d]pyridazine] | 16.4%
10 | Fc1cccc(-c2nc3cnn(Cc4cc(-c5ccc(C(F)(F)F)cc5)on4)cc-3n2)c1F [Compound 241, 2-(2,3-Difluoro-phenyl)-5-[5-(4-trifluoromethyl-phenyl)-isoxazol-3-ylmethyl]-5H-imidazo[4,5-d]pyridazine] | 99.7%
11 | Fc1cccc(-c2nc3cnn(Cc4cc(-c5ccc(OC(F)(F)F)cc5)on4)cc-3n2)c1F [Compound 242, 2-(2,3-Difluoro-phenyl)-5-[5-(4-trifluoromethoxy-phenyl)-isoxazol-3-ylmethyl]-5H-imidazo[4,5-d]pyridazine] | 97%
12 | CCCOc1ccc(-c2cc(Cn3cc4nc(-c5cccc(F)c5F)nc-4cn3)no2)cc1 [Compound 243, 2-(2,3-Difluoro-phenyl)-5-[5-(4-propoxy-phenyl)-isoxazol-3-ylmethyl]-5H-imidazo[4,5-d]pyridazine] | 99.4%
13 | Fc1cccc(-c2nc3ccn(Cc4cc(-c5ccc(C(F)(F)F)cc5C(F)(F)F)no4)nc-3n2)c1F [Compound 245, 2-[3-(2,4-Bis-trifluoromethyl-phenyl)-isoxazol-5-ylmethyl]-6-(2,3-difluoro-phenyl)-2H-imidazo[4,5-c]pyridazine] | 72.8%
14 | Fc1cccc(-c2nc3ccn(Cc4cc(-c5ccc(C(F)(F)F)cc5)no4)nc-3n2)c1F [Compound 246, 6-(2,3-Difluoro-phenyl)-2-[3-(4-trifluoromethyl-phenyl)-isoxazol-5-ylmethyl]-2H-imidazo[4,5-c]pyridazine] | 62.1%
15 | Fc1cc(C(F)(F)F)ccc1-c1cc(Cn2ccc3nc(-c4cccc(F)c4F)nc-3n2)on1 [Compound 247, 6-(2,3-Difluoro-phenyl)-2-[3-(2-fluoro-4-trifluoromethyl-phenyl)-isoxazol-5-ylmethyl]-2H-imidazo[4,5-c]pyridazine] | 80%
16 | FC(F)(F)c1ccc(-c2cc(Cn3cc4nc(Nc5ccccc5)nc-4cn3)on2)c(C(F)(F)F)c1 [Compound 248, {5-[3-(2,4-Bis-trifluoromethyl-phenyl)-isoxazol-5-ylmethyl]-5H-imidazo[4,5-d]pyridazin-2-yl}-phenyl-amine] | 15.5%
17 | FC(F)(F)c1ccc(-c2cc(Cn3cc4nc(NCc5ccccc5)nc-4cn3)on2)c(C(F)(F)F)c1 [Compound 251, Benzyl-{5-[3-(2,4-bis-trifluoromethyl-phenyl)-isoxazol-5-ylmethyl]-5H-imidazo[4,5-d]pyridazin-2-yl}-amine] | 97.7%

Row | Compound | inhibition at 10 µM
18 | Fc1cccc(CNc2nc3cnn(Cc4cc(-c5ccc(C(F)(F)F)cc5C(F)(F)F)no4)cc-3n2)c1F [Compound 255, {5-[3-(2,4-Bis-trifluoromethyl-phenyl)-isoxazol-5-ylmethyl]-5H-imidazo[4,5-d]pyridazin-2-yl}-(2,3-difluoro-benzyl)-amine] | 4.67%
19 | FC(F)(F)c1ccc(-c2cc(Cn3cc4nc(NCCc5ccccc5)nc-4cn3)on2)c(C(F)(F)F)c1 [Compound 256, {5-[3-(2,4-Bis-trifluoromethyl-phenyl)-isoxazol-5-ylmethyl]-5H-imidazo[4,5-d]pyridazin-2-yl}-phenethyl-amine] | 9.34%
20 | FC(F)(F)c1ccc(-c2cc(Cn3cc4nc(N5CCc6ccccc6C5)nc-4cn3)on2)c(C(F)(F)F)c1 [Compound 257, 2-{5-[3-(2,4-Bis-trifluoromethyl-phenyl)-isoxazol-5-ylmethyl]-5H-imidazo[4,5-d]pyridazin-2-yl}-1,2,3,4-tetrahydro-isoquinoline] | 0.87%
21 | CC(Nc1nc2cnn(Cc3cc(-c4ccc(C(F)(F)F)cc4C(F)(F)F)no3)cc-2n1)c1ccccc1 (stereo not drawn) [Compound 258, {5-[3-(2,4-Bis-trifluoromethyl-phenyl)-isoxazol-5-ylmethyl]-5H-imidazo[4,5-d]pyridazin-2-yl}-(1-phenyl-ethyl)-amine] | 40%
22 | FC(F)(F)c1ccc(-c2cc(Cn3cc4nc(NC5CCc6ccccc65)nc-4cn3)on2)c(C(F)(F)F)c1 (stereo not drawn) [Compound 259] | 50.6%
23 | FC(F)(F)c1ccc(-c2cc(Cn3cc4nc(NC5CCCc6ccccc65)nc-4cn3)on2)c(C(F)(F)F)c1 (stereo not drawn) [Compound 260, {5-[3-(2,4-Bis-trifluoromethyl-phenyl)-isoxazol-5-ylmethyl]-5H-imidazo[4,5-d]pyridazin-2-yl}-(1,2,3,4-tetrahydro-naphthalen-1-yl)-amine] | 53.2%
24 | FC(F)(F)c1ccc(-c2cc(Cn3cc4nc(N5Cc6ccccc6C5)nc-4cn3)on2)c(C(F)(F)F)c1 [Compound 261, 5-[3-(2,4-Bis-trifluoromethyl-phenyl)-isoxazol-5-ylmethyl]-2-(1,3-dihydro-isoindol-2-yl)-5H-imidazo[4,5-d]pyridazine] | 73.9%
25 | Oc1nn(Cc2cc(-c3ccc(C(F)(F)F)cc3C(F)(F)F)no2)cc2nc(-c3cccc(F)c3F)nc1-2 [Compound 262, 6-[3-(2,4-Bis-trifluoromethyl-phenyl)-isoxazol-5-ylmethyl]-2-(2,3-difluoro-phenyl)-6H-imidazo[4,5-d]pyridazin-4-ol] | 96.6%
26 | COc1ccc(-c2cc(Cn3cc4nc(-c5cccc(F)c5F)nc-4cn3)on2)c(C(=O)O)c1 [Compound 266, 2-{5-[2-(2,3-Difluoro-phenyl)-imidazo[4,5-d]pyridazin-5-ylmethyl]-isoxazol-3-yl}-5-methoxy-benzoic Acid] | 10%
27 | COc1ccc(-c2ccc(-c3cc(Cn4cc5nc(-c6cccc(F)c6F)nc-5cn4)on3)cc2)cc1 [Compound 268, 2-(2,3-Difluoro-phenyl)-5-[3-(4′-methoxy-biphenyl-4-yl)-isoxazol-5-ylmethyl]-5H-imidazo[4,5-d]pyridazine] | 93.7%
28 | CCCOc1ccc(-c2ccc(-c3cc(Cn4cc5nc(-c6cccc(F)c6F)nc-5cn4)on3)cc2)cc1 [Compound 269, 2-(2,3-Difluoro-phenyl)-5-[3-(4′-propoxy-biphenyl-4-yl)-isoxazol-5-ylmethyl]-5H-imidazo[4,5-d]pyridazine] | 36.6%
29 | O=C(COc1ccc(-c2cc(Cn3cc4nc(-c5cccc(F)c5F)nc-4cn3)on2)cc1)NC1CC1 [Compound 271, N-Cyclopropyl-2-(4-{5-[2-(2,3-difluoro-phenyl)-imidazo[4,5-d]pyridazin-5-ylmethyl]-isoxazol-3-yl}-phenoxy)-acetamide] | 2.27%
30 | CC(=O)OCCCOc1ccc(-c2cc(Cn3cc4nc(-c5cccc(F)c5F)nc-4cn3)on2)cc1 [Compound 272, Acetic Acid 3-(4-{5-[2-(2,3-difluoro-phenyl)-imidazo[4,5-d]pyridazin-5-ylmethyl]-isoxazol-3-yl}-phenoxy)-propyl Ester] | 91.1%
31 | Fc1cccc(-c2nc3cnn(Cc4cc(-c5ccc(OCCCN6CCOCC6)cc5)no4)cc-3n2)c1F [Compound 273, 2-(2,3-Difluoro-phenyl)-5-{3-[4-(3-morpholin-4-yl-propoxy)-phenyl]-isoxazol-5-ylmethyl}-5H-imidazo[4,5-d]pyridazine] | 94%
32 | O=C(O)CCCOc1ccc(-c2cc(Cn3cc4nc(-c5cccc(F)c5F)nc-4cn3)on2)cc1 [Compound 274, 4-(4-{5-[2-(2,3-Difluoro-phenyl)-imidazo[4,5-d]pyridazin-5-ylmethyl]-isoxazol-3-yl}-phenoxy)-butyric Acid] | 54.9%
33 | Fc1ccccc1-c1nc2cnn(Cc3cc(-c4cccc(C(F)(F)F)c4)no3)cc-2n1 [Compound 276, 2-(2-Fluoro-phenyl)-5-[3-(3-trifluoromethyl-phenyl)-isoxazol-5-ylmethyl]-5H-imidazo[4,5-d]pyridazine] | 60%
